In patent publication US20020054880A1, “Anti-inflammatory, tolerogenic and immunoinhibiting properties of carbohydrate binding-peptides” (priority 1992, published 2002):

Legend:
[1] = molecular target: T1, ACS2P1-biotin binding to fetuin (Bordetella pertussis, UniProt P04978); conditions: saccharide 8 mM in PBS; 0.1 μg ACS2P1-biotin; fetuin 3 μg/ml; + enhancement, − inhibition
T1 construct: 2; ACS2P1-b; 9-23; made in house; host or cells: chemical synthesis

[2] = molecular target: T2, ACS2P1-biotin binding to fetuin (Bordetella pertussis, UniProt P04978, G45S); conditions: saccharide 8 mM; n=3
T2 construct: 2; ACS2P1-b; 9-23; made in house; host or cells: chemical synthesis

[3] = molecular target: SPYGRC-biotin binding to fetuin (Bordetella pertussis, UniProt P04978); assay: Inhibition of SPYGRC-biotin binding to fetuin by simple saccharides; conditions: saccharide 8 mM in PBS, 0.5 μg SPYGRC-biotin, fetuin 3 μg/ml, + enhancement
Description: Binding inhibition assays were done using sialic acid, sialyllactose, lactose, or N-acetyl-glucosamine at a concentration of 8 mM in PBS. […] The pH of free sialic acid was carefully monitored and adjusted to physiological pH values with dilute sodium hydroxide.

[4] = molecular target: T3, PT-biotin binding to asialofetuin (Bos taurus, UniProt P12763); assay: PT-biotin binding to asialofetuin, binding inhibition assay; set-up: species or system Bordetella pertussis; conditions: peptide mg/mL: S2PL 1.2, ACS2P1 1.0, S2P2 1.1, S2P3 0.51, S2P4 0.98, S2P6 0.85, S3P1 3.2, S3P2 3.1, S3P3 4.5, S3P4 3.3, S3P5 0.48, SPYGRC 4.4; + enhancement, − inhibition
T3 construct: made in house
T3 sequence (P12763 19-359): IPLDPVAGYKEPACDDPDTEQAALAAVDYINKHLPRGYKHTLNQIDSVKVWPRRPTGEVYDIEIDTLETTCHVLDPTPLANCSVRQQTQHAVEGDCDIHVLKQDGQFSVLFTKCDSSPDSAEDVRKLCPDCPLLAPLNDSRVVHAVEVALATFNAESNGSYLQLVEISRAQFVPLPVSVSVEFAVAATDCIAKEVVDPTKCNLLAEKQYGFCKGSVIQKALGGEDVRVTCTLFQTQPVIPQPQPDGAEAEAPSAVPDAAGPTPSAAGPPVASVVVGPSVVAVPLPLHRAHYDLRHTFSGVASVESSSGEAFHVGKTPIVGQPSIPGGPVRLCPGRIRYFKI
Description: (§1) Peptides ranging in concentration from 0.5 to 4.5 mg/ml in PBS (40 μl) were added to each well and PT-biotin (10 μl containing 10 ng in PBS) was then added to the microtiter wells. […] Horseradish peroxidase-conjugated avidin (100 μl, 1/3000 dilution in PBST to a concentration of 0.3 μg/ml) was then added to the wells, and the plates were incubated at ambient temperature for 1 hour. […] Color development was recorded at 405 nm using a Titertek Multiskan MC plate reader. […] Binding assays for each peptide were done in duplicate. Binding inhibition experiments utilizing SNA-, WGA-, and MAL-biotin were performed as described above using 10 ng of each biotinylated lectin in PBS.
(§2) Binding assays for each inhibitor concentration were done at least in duplicate, and the average value varied less than 15%.

[5] = molecular target: T4, PT-biotin binding to fetuin (Bos taurus, UniProt P12763); assay: PT-biotin binding to fetuin, binding inhibition assay; set-up: species or system Bordetella pertussis; conditions: for Percent Changes in Binding Activity PT/fetuin: peptide mg/mL: S2PL 1.2, ACS2P1 1.0, S2(14-2.3) 1.0, S2P2 1.1, S2P3 0.51, S2P4 0.98, S2P6 0.85, S3P1 3.2, S3P2 3.1, S3P3 4.5, S3P4 3.3, S3P5 0.48, S3P9a 1.7, SPYGRC 4.4, S2(WGA) 1.0, WGA (62-73) 1.0, + enhancement, − inhibition
T4 construct: purchased Sigma Chemical Company (fetuin); Connaught Center for Biotechnology Research (PT)
T4 sequence (P12763 19-359): T3 sequence (P12763 19-359)
Description: as §1, §2

[6] = molecular target: T5, ACS2P1-biotin binding to asialofetuin (Bos taurus, UniProt P12763); assay: Screening of S2 and S3 peptides for inhibition of ACS2P1-biotin binding to asialofetuin; conditions: for Percent Change in Binding Activity Asialofetuin: peptide μM: ACS2P1 4.1, S2P2 42.5, SPYGRC 5520, S2P3 22.4, S2P4 6.0, S2P6 319, S3P1 1142, S3P2 934, S3P3 16.1, S3P4 6.4, S3P5 22.5, ACS2P1-biotin 0.1 μg, − inhibition, + enhancement
T5 construct: made in house
T5 sequence (P12763 19-359): T3 sequence (P12763 19-359)

[7] = molecular target: T6, ACS2P1-biotin binding to fetuin (Bos taurus, UniProt P12763); assay: biochemical; conditions: for Percent Change in Binding Activity Fetuin: peptide μM: ACS2P1 4.1, S2P2 42.5, SPYGRC 5520, S2P3 22.4, S2P4 6.0, S2P6 319, S3P1 1142, S3P2 934, S3P3 16.1, S3P4 6.4, S3P5 22.5, ACS2P1-biotin 0.1 μg, − inhibition, + enhancement
T6 construct: purchased Sigma Chemical Company
T6 sequence (P12763 19-359): T3 sequence (P12763 19-359)

[8] = molecular target: T7, SNA-biotin binding to fetuin (Bos taurus, UniProt P12763); assay: biochemical; conditions: peptide mg/mL: S2PL 1.2, ACS2P1 1.0, S2(14-2.3) 1.0, S2P2 1.1, S2P3 0.51, S2P4 0.98, S2P6 0.85, S3P1 3.2, S3P2 3.1, S3P3 4.5, S3P4 3.3, S3P5 0.48, S3P9a 1.7, SPYGRC 4.4, S2(WGA) 1.0, WGA (62-73) 1.0; + enhancement, − inhibition
T7 sequence (P12763 19-359): T3 sequence (P12763 19-359)
Description: (§3) The solution was removed by aspiration and replaced with 100 μl of 1% BSA in PBS containing 0.05% Tween 20 (PBST). After incubation for 2-4 hours at room temperature, the microtiter wells were washed four times with 300 μl of PBST. Peptides ranging in concentration from 0.5 to 4.5 mg/ml in PBS (40 μl) were added to each well and PT-biotin (10 μl containing 10 ng in PBS) was then added to the microtiter wells. After incubating for 1 hour, the binding reaction was stopped by aspirating the solutions and the plate was washed with PBST (300 μl). Horseradish peroxidase-conjugated avidin (100 μl, 1/3000 dilution in PBST to a concentration of 0.3 μg/ml) was then added to the wells, and the plates were incubated at ambient temperature for 1 hour. After washing the wells as described above, the substrate solution [1 mM ABTS in 5 mM citrate buffer, pH 4.2, containing 0.1% hydrogen peroxide, v/v) was added and the plates were incubated for 30 minutes. Color development was recorded at 405 nm using a Titertek Multiskan MC plate reader. Maximum binding was determined in the absence of peptide, and background binding was measured in wells coated with BSA only. Binding assays for each peptide were done in duplicate. Binding inhibition experiments utilizing SNA-, WGA-, and MAL-biotin were performed as described above using 10 ng of each biotinylated lectin in PBS.

[9] = molecular target: T8, WGA-biotin binding to fetuin (Bos taurus, UniProt P12763); assay: biochemical; conditions: peptide mg/mL: S2PL 1.2, ACS2P1 1.0, S2(14-2.3) 1.0, S2P2 1.1, S2P3 0.51, S2P4 0.98, S2P6 0.85, S3P1 3.2, S3P2 3.1, S3P3 4.5, S3P4 3.3, S3P5 0.48, SPYGRC 4.4, S2(WGA) 1.0, WGA (62-73) 1.0; + enhancement, − inhibition
T8 sequence (P12763 19-359): T3 sequence (P12763 19-359)
Description: as §3

[10] = molecular target: T9, MAL-biotin binding to fetuin (Bos taurus, UniProt P12763); assay: MAL-biotin binding to fetuin, binding inhibition assay; set-up: species or system Maackia amurensis; conditions: peptide mg/mL: S2PL 1.2, ACS2P1 1.0, S2(14-2.3) 1.0, S2P2 1.1, S2P3 0.51, S2P4 0.98, S2P6 0.85, S3P1 3.2, S3P2 3.1, S3P3 4.5, S3P4 3.3, S3P5 0.48, S3P9a 1.7, SPYGRC 4.4, S2(WGA) 1.0, WGA (62-73) 1.0; + enhancement, − inhibition
T9 construct: purchased Sigma Chemical Company (fetuin); Boehringer Mannheim (MAL-biotin)
T9 sequence (P12763 19-359): T3 sequence (P12763 19-359)
Description: as §1, §2

[11] = test system: pertussis toxin binding to Chinese Hamster ovary (CHO) cell; assay: CHO cell neutralization of pertussis toxin (cell clumping); format: cell-based; conditions: PT 2.4 ng/ml, peptide and PT 1 hour, triplicate
Description: Confluent monolayers of CHO cells were lifted from plastic tissue culture flasks with 0.25% trypsin and suspended at a concentration of 5×10^4 cells/ml in Ham's F12 media containing 10% fetal bovine serum (FBS). 100 μl of the cell suspension was added to 96 well tissue culture plates and were allowed to establish contact with the plastic for 24 to 48 hours. The expended media was then removed and filtered-sterilized peptide 5-fold dilutions ranging in concentration from 300 to 30 femptogram per ml (80 μl) in Ham' F12 media containing FBS were added to the CHO cells. […] The incubation mixtures were gently mixed and incubated at 37° C. for 1 hour in a CO2 incubator. The incubation mixtures were then removed and replaced with fresh media. The tissue culture plates were then incubated for 24 hours at 37° C., fixed with 100% methanol, and stained with Geimsa stain. Control experiments were done in the absence of peptide alone or in the absence of PT. All determinations were done in triplicate. […] The results reported in Table VIII show the maximum peptide concentration required to cause a 50% reduction in CHO cell clumping.

OC[C@H]1O[C@@H](O[C@H]2[C@H](O)[C@@H](O)C(O)O[C@@H]2CO)[C@H](O)[C@@H](O)[C@H]1O (some centres unmarked) [Lactose]
Percent Changes in Binding Activity ACS2P1-biotin (n = 3) [1]: +74 ± 7% | inhibition of the binding of biotinylated peptide (ACS2P1-biotin) to fetuin [2]: failed to reduce the binding of ACS2P1-biotin | Percent Changes in Binding Activity SPYGRC-biotin (n = 3) [3]: +20 ± 11%

CC(=O)N[C@H]1C(O)O[C@H](CO)[C@@H](O)[C@@H]1O (some centres unmarked) [N-Acetylglucosamine]
Percent Changes in Binding Activity ACS2P1-biotin (n = 3) [1]: −10 ± 2% | inhibition of the binding of biotinylated peptide (ACS2P1-biotin) to fetuin [2]: 10±2% | Percent Changes in Binding Activity SPYGRC-biotin (n = 3) [3]: +6 ± 5%

CC[C@H](C)[C@H](NC(=O)CNC(=O)[C@@H]1CCCN1C(=O)[C@@H](NC(=O)[C@@H](N)CO)[C@@H](C)O)C(=O)N[C@H](C(=O)N[C@H](C(=O)N1CCC[C@H]1C(=O)N1CCC[C@H]1C(=O)N[C@@H](CCC(N)=O)C(=O)N[C@@H](CCC(=O)O)C(=O)N[C@@H](CCC(N)=O)C(=O)N[C@H](C(=O)N[C@H](C(=O)N[C@@H](CCC(N)=O)C(=O)N[C@@H](Cc1c[nH]cn1)C(=O)NCC(=O)N[C@@H](CO)C(=O)N1CCC[C@H]1C(=O)N[C@@H](Cc1ccc(O)cc1)C(=O)NCC(=O)N[C@@H](CCCNC(=N)N)C(=O)N[C@@H](CS)C(=O)O)[C@@H](C)O)[C@@H](C)CC)[C@@H](C)CC)C(C)C [Peptide S2P2]
Percent Changes in Binding Activity PT/asialo-fetuin [4]: +33(1) Percent | effect on PT-biotin binding to fetuin, in words [5]: enhancement of binding of PT to fetuin | enhancement of PT-biotin binding to fetuin relative to control experiments in the absence of peptide ([5]; initial peptide screening): ~2 fold | Percent Changes in Binding Activity PT/fetuin [5]: +58 ± 4% | competition for the binding of ACS2P1-biotin to asialofetuin, in words [6]: unable to compete for the binding of ACS2P1-biotin to asialofetuin | Percent Change in Binding Activity Asialofetuin [6]: +6 ± 1% | IC50 [7]: 42.5 µM | decrease in affinity relative to ACS2P1 ([7]; from IC50 values): 10 fold | Percent Change in Binding Activity Fetuin [7]: −50% | Percent Changes in Binding Activity SNA/fetuin [8]: −1 ± 1% | Percent Changes in Binding Activity WGA/fetuin [9]: −15 ± 2% | Percent Changes in Binding Activity MAL/fetuin [10]: +14 ± 2% | Maximal Inhibitory Concentration for Greater than 50% Inhibition [11]: NI (Not inhibitory at a peptide concentration of 300 ng/ml.)

CC(=O)N[C@H]1[C@H]([C@H](O)[C@H](O)CO)OC(O)(C(=O)O)C[C@@H]1O (some centres unmarked) [Sialic acid]
Percent Changes in Binding Activity SPYGRC-biotin (n = 3) [3]: +9 ± 8%

OC[C@H]1O[C@@](CO)(O[C@H]2O[C@H](CO)[C@@H](O)[C@H](O)[C@H]2O)[C@@H](O)[C@@H]1O [Sucrose]
Percent Changes in Binding Activity ACS2P1-biotin (n = 3) [1]: 0 ± 3%

PKALFTQQGGAYGRC [Peptide S3P1]
Percent Changes in Binding Activity PT/asialo-fetuin [4]: +45 ± 16% | Percent Changes in Binding Activity PT/fetuin [5]: +54 ± 25% | Percent Change in Binding Activity Asialofetuin [6]: +4 ± 0% | inhibition of ACS2P1-biotin binding to fetuin, in words [7]: inability | Percent Change in Binding Activity Fetuin [7]: +245 ± 28% | Percent Changes in Binding Activity SNA/fetuin [8]: −2 ± 1% | Percent Changes in Binding Activity WGA/fetuin [9]: −9 ± 4% | Percent Changes in Binding Activity MAL/fetuin [10]: +4 ± 6% | Maximal Inhibitory Concentration for Greater than 50% Inhibition [11]: NI (Not inhibitory at a peptide concentration of 300 ng/ml.)

Sialyllactose
Percent Changes in Binding Activity ACS2P1-biotin (n = 3) [1]: −46 ± 3% | Percent Changes in Binding Activity SPYGRC-biotin (n = 3) [3]: −24 ± 6%

VAPGIVIPPKALFTQQGGAYGRC [Peptide S3P2]
Percent Changes in Binding Activity PT/asialo-fetuin [4]: +82 ± 11% | Percent Changes in Binding Activity PT/fetuin [5]: +77 ± 59% | Percent Change in Binding Activity Asialofetuin [6]: +12 ± 16% | inhibition of ACS2P1-biotin binding to fetuin, in words [7]: inability | Percent Change in Binding Activity Fetuin [7]: +88 ± 72% | Percent Changes in Binding Activity SNA/fetuin [8]: +3 ± 3% | Percent Changes in Binding Activity WGA/fetuin [9]: +9 ± 4% | Percent Changes in Binding Activity MAL/fetuin [10]: +12 ± 16% | Maximal Inhibitory Concentration for Greater than 50% Inhibition [11]: NI (Not inhibitory at a peptide concentration of 300 ng/ml.)
